{
  "source": "patent US20220142967A1",
  "about": "“Methods and Compositions for the Treatment of Multiple Sclerosis” (SYMBIONYX PHARMACEUTICALS INC, priority 2018, published 2022)",
  "key": {"[1]": {"system": "NRF2 (NF-E2-related factor 2) transcription factor", "experiment": "Cignal ARE Reporter Assay, NRF2-mediated luciferase gene expression in HEK293 cells", "format": "cell-based", "conditions": "HEK293, 24 h", "procedure": "2017 December; 23(14):1875-1883. doi: 10.1177/1352458517690617. Epub 2017 Feb.\nThe experiments were performed using HEK293 cells (Sigma, St. Louis, Mo.; cat. #85120602) seeded at 50,000 per well in a 96 well white opaque-wall tissue culture plates. Cells were transfected by mixing Cignal Reporter Assay firefly/renilla luciferase constructs (cat. # CCS-5020L; Qiagen) with Attractene Transfection Reagent (Qiagen) in Opti-MEM (ThermoFisher Scientific, Waltham, Mass.) supplemented with 1% MEM Non-essential amino acid solution without L-glutamine (Sigma; cat. #M7145). After medium change test materials were added and their effect on NRF2 induction was quantified 24 h later with the Dual-Luciferase Reporter Assay System (cat. #E1960; Promega, Madison, Wis.).\nThe ARE (antioxidant response element) reporter is a mixture of a Nrf2-responsive luciferase construct encoding the firefly luciferase reporter gene under the control of a minimal (m)CMV promoter and tandem repeats of the ARE transcriptional response element, and a constitutively expressing Renilla element (40:1), which acts as an internal control for normalizing transfection efficiencies and monitoring cell viability. […] Signal quantification was obtained with ThermoFisher Scientific Luminoskan Ascent Microplate Luminometer."}, "[2]": {"molecular_target": "T1, carboxylesterase 2 (CES2) (Homo sapiens, UniProt O00748)", "T1 sequence (O00748 27-559)": "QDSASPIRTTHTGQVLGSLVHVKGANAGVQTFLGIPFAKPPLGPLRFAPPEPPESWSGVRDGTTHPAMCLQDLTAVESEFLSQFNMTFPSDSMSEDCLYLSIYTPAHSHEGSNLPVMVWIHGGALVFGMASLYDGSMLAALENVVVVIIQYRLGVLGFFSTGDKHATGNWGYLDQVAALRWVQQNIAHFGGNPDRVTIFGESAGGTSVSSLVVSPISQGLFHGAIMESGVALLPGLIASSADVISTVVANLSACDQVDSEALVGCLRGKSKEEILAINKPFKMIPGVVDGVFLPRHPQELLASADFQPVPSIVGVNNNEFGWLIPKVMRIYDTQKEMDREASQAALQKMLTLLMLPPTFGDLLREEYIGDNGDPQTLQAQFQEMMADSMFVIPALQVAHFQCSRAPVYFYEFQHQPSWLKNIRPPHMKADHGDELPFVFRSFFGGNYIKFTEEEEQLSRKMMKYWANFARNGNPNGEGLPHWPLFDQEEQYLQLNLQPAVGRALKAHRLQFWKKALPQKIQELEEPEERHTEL", "experiment": "Carboxylesterase hydrolysis IDMF v DMF", "format": "in vitro ADME", "conditions": "for remaining parent compound: 1 mg/ml CES2, 37° C., pH 7.4", "procedure": "IDMF and DMF were subjected to carboxylesterase hydrolysis. […] 1 mg/ml carboxylesterase 2 (CES2) was added to each solution and the solutions incubated at 37° C. for the time periods set forth in Table 5. […] Isosorbide was quantified using CAD. Mobile phase used for the study: 0.1% Formic acid in water; B: Methanol. Column: Luna C18 4.6 mm×100 mm, 5 u (Phenomenex). Flow rate: 1.0 ml/min."}, "[3]": {"system": "human fetal astrocytes derived from cerebral cortex", "experiment": "Comparative RT-PCR evaluation of selected genes in astrocytes", "format": "cell-based", "procedure": "Experiments were performed using human fetal astrocytes derived from cerebral cortex (cat. no. 882A-05f; Cell Applications, Sant Diego, Calif.). Cells were grown to subconfluence in human astrocyte growth medium (cat. no. 820-500, Cell Applications). […] Test materials were added to subconfluent cultures at a concentration of 2.5 μM and cells were incubated for 24 hours.\nRNA was extracted following the incubation period using the RNAeasy Mini Plus kit (Qiagen, Hilden, Germany) and robotic Qiacube Connect station (Qiagen). Samples were shipped on dry ice to the Thermo Fisher Microarray Research Services Laboratory (Santa Clara, Calif.) for transcriptome analysis. RNA quality analysis was performed upon sample receipt using the NanoDrop Lite (Thermo Fisher Scientific, Waltham, Mass.). All samples had 260/280 nm absorbance ratios higher than 1.90, consistent with high-purity RNA.\nThe expression of selected genes was further evaluated using RT-PCR. cDNA was prepared using the AzuraQuant cDNA kit (Azura Genomics, Raynham, Mass.) and PCR reactions were performed using the BioRad iCycler iQ Detection System with Fast Green qPCR Master Mix—Fluor (Azura Genomics). PCR primers were purchased from Realtimeprimers (Elkins Park, Pa.). The ΔΔCt method [Livak K. J. and Schmittgen T. D. Analysis of relative gene expression data using real-time quantitative PCR and the 2(−Delta Delta C(T)) Method. Methods (San Diego, Calif.) 25(4):402-408, 2001]. was used to estimate fold changes with cycle threshold values normalized based upon the expression of glyceraldehyde-3-phosphate dehydrogenase (GAPDH)."}},
  "note": "Structures can show the parent of a compound that is named as a salt.",
  "data": [
    {"smiles": "COC(=O)/C=C/C(=O)O[C@H]1CO[C@H]2[C@@H]1OC[C@H]2OC(=O)/C=C/C(=O)OC", "note": "[IDMF, isosorbide di-(methyl fumarate)]", "values": [
      {"measurement": "Fold Change v. water control (1), NRF2-mediated luciferase gene expression", "setting": "[1]; 1 μg/ml", "result": 2.78, "unit": "fold"},
      {"measurement": "Fold Change v. water control (1), NRF2-mediated luciferase gene expression", "setting": "[1]; 10 μg/ml", "result": 4.61, "unit": "fold"},
      {"measurement": "remaining parent compound", "setting": "[2]; 0 minutes", "result": 1.027, "unit": "mM"},
      {"measurement": "remaining parent compound", "setting": "[2]; 15 minutes", "result": 0.072, "unit": "mM"},
      {"measurement": "time by which essentially all is hydrolyzed", "setting": "[2]; CES2, 37° C.", "result": "≤ 15", "unit": "min"},
      {"measurement": "OSGIN1 expression", "setting": "[3]; FIG. 11(B)", "result": "enhancing expression"},
      {"measurement": "expression of key MS-associated genes (IL-6, ICAM1, MALT1, TNFAIP3, IRF1, CXCL8)", "setting": "[3]; FIGS. 11(C) through 11(H)", "result": "marked suppression"}
    ]}
  ]
}
